Key:
Type in all cases: cell-based
[1] = tested on: pro-collagen; test: Pro-collagen expression in UVB photoaging of skin fibroblasts, Western blotting; conditions: skin fibroblasts pretreated with 10 µM one hour before 8 mJ/cm^2 UVB; after 6 hours
Protocol: First, the effect of Compound 69c on pro-collagen expression by cell photoaging was analyzed. A collagen reduction model by UVB was constructed using skin fibroblasts to perform the experiments. Skin fibroblasts were pretreated with 10 µM Compound 69c one hour ago and irradiated with 8 mJ/cm^2 of UVB. After 6 hours, the cells were lysed and the expression of pro-collagen was confirmed via Western blotting.

[2] = tested on: p53; test: Acetylation of p53 increased by UVB
Excerpt: Furthermore, SIRT 1 is known to exert its function through deacetylation of various substrate proteins.

[3] = tested on: reactive oxygen species (ROS); test: Reactive oxygen species with DCF-DA fluorescent dye
[4] = tested on: MMP13; test: MMP13 expression in UVB photoaging of skin fibroblasts, Western blotting; conditions: skin fibroblasts pretreated with 10 µM 1 hour before 8 mJ/cm^2 UVB; after 6 hours
Protocol: (§1) Based on this, in order to confirm the effect of Compound 69c on the expression level of intracellular MMPs, 10 µM of Compound 69c was pretreated 1 hour prior to skin fibroblasts and irradiated with UVB of 8 mJ/cm^2. After 6 hours, cells were lysed and the expression levels of MMP1 and MMP13 were confirmed by Western blotting.

[5] = tested on: skin fibroblasts; test: β-galactosidase staining of UVB-induced cell aging; conditions: UVB of 10 mJ/cm^2; pretreated at 10 µM for 24 hours
Protocol: β-galactosidase is used to induce cellular aging of fibroblasts, which are the main cells of the epidermal layer of skin, by using UVB, the most important environmental factor in skin aging, as the most common marker for cell aging and β-galactosidase staining was performed to analyze the cell aging protection of Compound 32u. […]

[6] = target: T1, PPARβ/δ (Homo sapiens, UniProt Q03181); test: PPARβ/δ transfer into the nucleus, western blot; conditions: 1 hour and 30 minutes after treating cells
T1 construct: endogenous in cells
T1 sequence (Q03181 1-441): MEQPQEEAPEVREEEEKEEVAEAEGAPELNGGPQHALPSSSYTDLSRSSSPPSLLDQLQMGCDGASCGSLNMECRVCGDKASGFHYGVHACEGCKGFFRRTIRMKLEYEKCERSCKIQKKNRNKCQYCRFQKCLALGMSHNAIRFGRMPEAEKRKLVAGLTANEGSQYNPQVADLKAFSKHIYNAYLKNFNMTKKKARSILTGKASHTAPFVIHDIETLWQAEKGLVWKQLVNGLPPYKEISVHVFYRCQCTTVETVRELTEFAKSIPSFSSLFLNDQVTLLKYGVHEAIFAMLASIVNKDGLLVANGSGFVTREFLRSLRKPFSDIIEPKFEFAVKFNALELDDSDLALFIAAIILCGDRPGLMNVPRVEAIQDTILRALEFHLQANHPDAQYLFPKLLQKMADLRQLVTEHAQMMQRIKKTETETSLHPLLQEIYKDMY

[7] = tested on: SIRT 1; test: SIRT 1 expression, real-time PCR and western blot
Protocol: To confirm whether Compound 69c increases the expression of SIRT 1 through the activation of PPARβ/δ, real-time PCR and western blot were performed.

[8] = target: T1, PPARβ/δ; test: PPAR response element (PPRE)-luciferase assay in fibroblasts; conditions: fibroblasts overexpressing PPARβ/δ; compared with GW501516
Protocol: Next, to analyze the effect of PPARβ/δ activity of Compound 69c, a PPAR response element (PPRE)-luciferase assay was performed on fibroblasts, which are the main cells of the skin epithelial layer. A binding site region of PPARβ/δ, i.e. plasmids in which the PPRE region was bound upstream of the luciferase gene were transfected by treating the cells with lipofectamine. Through this process, DNA is surrounded by lipofectamine, making it easier to pass the cell membrane. In addition, it is possible to identify which of the PPAR subtypes is effective by overexpressing PPARβ/δ in addition to the endogenous PPAR subtype. 18 to 24 hours after transduction, at least 5 hours after treatment with the candidate compound, fluorescence was measured by addition of the substrate of the luciferase assay system. Luciferase expression amount can be analyzed by the fluorescence value, and the activity level of PPARβ/δ can be analyzed through the above results.

[9] = tested on: MMP1; test: MMP1 expression in UVB photoaging of skin fibroblasts, Western blotting; conditions: skin fibroblasts pretreated with 10 µM 1 hour before 8 mJ/cm^2 UVB; after 6 hours
Protocol: as §1

Question: How did the expression of pro-collagen [1] turn out when `CN1CCN(Cc2ccc3oc(-c4ccccc4NC(=O)c4ccc5ccccc5c4)nc3c2)CC1` [Compound 69c, N-(2-(5-((4-Methylpiperazin-1-yl)methyl)benzo[d]oxazol-2-yl)phenyl)-2-naphthamide] was run?
Answer: increased

Question: What about the “acetylation of p53” value [2] of the same molecule?
Answer: inhibited acetylation of p53 increased by UVB

Question: And the “reactive oxygen species induced by UVB” value [3]?
Answer: inhibited

Question: And the “expression of MMP13” value [4]?
Answer: reduced

Question: What about the β-galactosidase staining [5] of the same molecule?
Answer: reduced

Question: And the “PPARβ/δ transfer in the nucleus” value [6]?
Answer: increase in PPARβ/δ transfer in the nucleus

Question: What about the “mRNA expression level of SIRT 1” value ([7]; real-time PCR) of the same molecule?
Answer: increased

Question: And the “protein expression level of SIRT 1” value ([7]; western blot)?
Answer: increased

Question: And the “PPARβ/δ activity (PPRE-luciferase)” value [8]?
Answer: higher PPARβ/δ activity than GW501516

Question: And the “expression of MMP1” value [9]?
Answer: reduced

From patent EP3613735A1, “NOVEL SIRT 1 ACTIVATOR AND MEDICINAL USE THEREOF” (Pusan National University Industry - University Cooperation …, priority 2017, dated 2018)
